The values below are quoted from earlier work in patent publication US9687529B2, “Method of controlling coagulation” (Duke University, priority 2011, dated 2017).

The test system of data set [1] is clot formation in plasma. As to conditions: concentration ten-fold higher than recommended for CPB; cited from earlier work.
The conditions of data set [2]: cited from earlier work.
For data set [3], the target named is thrombin (Homo sapiens, UniProt P00734). As to conditions: cited from earlier work.

Take FPRPGGGGNGDFEEIPEEYL [bivalirudin]: the “clot propagation and strength (in words)” value in data set [1] is “did not significantly reduce clot propagation and strength”. Further, in data set [2], the in vivo half-life entry is listed as “about 30 minutes”. Besides, the Kd in data set [3] is approximately 1.9 nM.

One may read the Kd as a measure of binding affinity in units of concentration.
